# Key:
# BG3594, pDALsub1 = assay: Sensitivity to β-chloro-D-alanine of strain carrying alr-expressing plasmid, LB agar plates; type: cell-based, Bacillus subtilis; set-up: key to Resistance (growth) on LB agar plate: +: growth; −: no growth; settings: for Resistance (growth) on LB agar plate: strain BG3594, pDALsub1
# Procedure: (§1) In a first phase, the concentration of β-chloro-D-alanine (CDA) necessary to inhibit growth of B. subtilis was determined by plating dilutions of LB-grown strain BG3594 on LB agar plates containing different concentrations of CDA. […] Other alanine racemase inhibitors, such as cycloserine, could be used instead of CDA.
# Bacillus subtilis BG3594 = assay: Sensitivity threshold to β-chloro-D-alanine, dilutions plated on LB agar plates; type: cell-based; set-up: key to Resistance (growth) on LB agar plate: +: growth; −: no growth; settings: for Resistance (growth) on LB agar plate: strain BG3594; for Growth of BG3594 in presence of CDA: LB agar
# Procedure: as §1
structure (smiles),measurement,setting,value
"N[C@H](CCl)C(=O)O [CDA, β-chloro-D-alanine]",Resistance (growth) on LB agar plate,"BG3594, pDALsub1; CDA 20 mg/L",+
same,Resistance (growth) on LB agar plate,"BG3594, pDALsub1; CDA 50 mg/L",+
same,Resistance (growth) on LB agar plate,"BG3594, pDALsub1; CDA 100 mg/L",+
same,Growth of BG3594 with alr-expressing plasmid in presence of CDA,"BG3594, pDALsub1; all CDA concentrations tested (up to 100 mg/L), LB agar",allows growth
same,Resistance (growth) on LB agar plate,Bacillus subtilis BG3594; CDA 20 mg/L,+
same,Resistance (growth) on LB agar plate,Bacillus subtilis BG3594; CDA 50 mg/L,−**
same,Resistance (growth) on LB agar plate,Bacillus subtilis BG3594; CDA 100 mg/L,−
same,Growth of BG3594 in presence of CDA,Bacillus subtilis BG3594; concentration of 20 mg/L,can still grow
same,Growth of BG3594 in presence of CDA,Bacillus subtilis BG3594; concentration of 50 mg/L,totally inhibited

# From patent US9528114B2, “Method for amplifying locus in bacterial cell” (DANISCO US INC., priority 2008, dated 2016)
